Structures can show the parent of a compound that is named as a salt. Where two headings read alike, the source gives them in different places. Marks after values point to notes of the source that are not given here.
Columns and labels:
[1] = molecular target: T1, Human 5-HT1A Receptor (Homo sapiens, UniProt P08908); experiment: 8-OH-DPAT binding, human 5-HT1A receptor cell line; conditions: stably transfected CHO cells, 8-OH-DPAT ligand 1.5 nM; read-out: h5-HT1A Affinity, Ki
T1 construct: expressed in transfected cells; host or cells: CHO cells
T1 sequence (P08908 1-422): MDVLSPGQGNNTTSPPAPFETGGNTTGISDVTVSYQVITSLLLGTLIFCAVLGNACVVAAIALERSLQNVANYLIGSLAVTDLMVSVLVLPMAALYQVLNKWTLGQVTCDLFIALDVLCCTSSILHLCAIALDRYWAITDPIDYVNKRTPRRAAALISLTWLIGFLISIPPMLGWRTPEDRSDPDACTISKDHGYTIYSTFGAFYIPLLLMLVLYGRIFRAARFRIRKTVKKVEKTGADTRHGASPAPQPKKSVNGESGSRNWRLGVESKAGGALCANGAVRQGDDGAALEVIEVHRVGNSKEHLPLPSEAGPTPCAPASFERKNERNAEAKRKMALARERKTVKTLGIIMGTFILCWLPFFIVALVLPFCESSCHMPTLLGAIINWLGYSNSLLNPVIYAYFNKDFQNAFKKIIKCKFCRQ
Method in brief: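 Membranes from CHO cells stably expressing human 5-HT1A, incubated 30 min at room temperature in 50 mM Tris pH 7.5 with 1.5 nM radioligand (8-OH-DPAT). Non-specific binding defined with […]; filtration on PEI-soaked GF/B filters. Single-point inhibition at […], then Ki for actives.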

[2] = molecular target: T2, serotonin transporter (Rattus norvegicus, UniProt P31652); experiment: 3H-paroxetine binding to the serotonin transporter, rat frontal cortical membranes; conditions: values printed without parentheses, 3H-paroxetine 0.1 nM, read-out: rb-5-HH-T, Ki
T2 construct: frontal cortical membranes prepared from male S.D. rats; from tissue; host or cells: rat frontal cortex membranes (male Sprague-Dawley)
Method in brief: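 Male Sprague-Dawley rat frontal cortical membranes incubated with 0.1 nM ³H-paroxetine for 60 min at 25 °C, test compound at one to eight concentrations; 10 μM fluoxetine defined specific binding. Filtration separated bound ligand, counted by scintillation. IC50 from nonlinear regression, converted to Ki by Cheng–Prusoff.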

[3] = molecular target: T1, Human 5-HT1A Receptor; experiment: cAMP RIA in human 5-HT1A receptor cell line; type: cell-based; conditions: CHO cells; for EC50: superscript a, read-out: c-AMP, (EC50)^a; for EC50 / Emax / c-AMP, (Emax)^c: forskolin stimulated cAMP; for Emax / c-AMP, (Emax)^c: superscript c; for Emax: read-out: c-AMP, (Emax)^c; for IC50: superscript b, reversal of agonist activity, read-out: c-AMP, (IC50)^b
Method in brief: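 Stably transfected CHO cells preincubated in Krebs with 500 uM IBMX, then given forskolin (1 uM final) and test compound (0.1 and 1 uM initial screen) for 10 min at 37° C; cAMP measured by RIA as % inhibition. Antagonist mode: 6 concentrations preincubated 20 min before agonist plus forskolin; IC50 for reversal.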

[4] = molecular target: h-5-HT-T (Homo sapiens, UniProt P31645); experiment: h-5-HT-T IC50 (Table 1, no method described)
[5] = molecular target: T3, cloned human 5-HT1A receptors (Homo sapiens, UniProt P08908); experiment: 35S-GTPγS binding assay; type: biochemical; conditions: for EC50: superscript a, potency of stimulatory effect; for IC50: superscript b, reversal of 8-OH-DPAT effect; for Emax: superscript c, maximum stimulatory effect; for Imax (maximum inhibitory effect) / GTPγS, (Imax)^d: superscript d, maximum inhibitory effect
T3 construct: expressed in transfected cells
T3 sequence (P08908 1-422): T1 sequence (P08908 1-422)
Text: The ^35S-GTPγS binding assay similar to that used by Lazareno and Birdsall (Br. J. Pharmacol., 1993, 109: 1120) was used to determine the test compound's ability to affect the binding of ^35S-GTPγS to membranes containing cloned human 5-HT1A receptors. Agonists produce an increase in binding whereas antagonists produce no increase but rather reverse the effects of the standard agonist 8-OH-DPAT. The test compound's maximum stimulatory effect is represented as the Emax, while its potency is defined by the EC50. The test compound's maximum inhibitory effect is represented as the Imax, while its potency is defined by the IC50. […] was used to determine maximum agonist or antagonist response.

h-5-HT-T, sequence (P31645 whole entry): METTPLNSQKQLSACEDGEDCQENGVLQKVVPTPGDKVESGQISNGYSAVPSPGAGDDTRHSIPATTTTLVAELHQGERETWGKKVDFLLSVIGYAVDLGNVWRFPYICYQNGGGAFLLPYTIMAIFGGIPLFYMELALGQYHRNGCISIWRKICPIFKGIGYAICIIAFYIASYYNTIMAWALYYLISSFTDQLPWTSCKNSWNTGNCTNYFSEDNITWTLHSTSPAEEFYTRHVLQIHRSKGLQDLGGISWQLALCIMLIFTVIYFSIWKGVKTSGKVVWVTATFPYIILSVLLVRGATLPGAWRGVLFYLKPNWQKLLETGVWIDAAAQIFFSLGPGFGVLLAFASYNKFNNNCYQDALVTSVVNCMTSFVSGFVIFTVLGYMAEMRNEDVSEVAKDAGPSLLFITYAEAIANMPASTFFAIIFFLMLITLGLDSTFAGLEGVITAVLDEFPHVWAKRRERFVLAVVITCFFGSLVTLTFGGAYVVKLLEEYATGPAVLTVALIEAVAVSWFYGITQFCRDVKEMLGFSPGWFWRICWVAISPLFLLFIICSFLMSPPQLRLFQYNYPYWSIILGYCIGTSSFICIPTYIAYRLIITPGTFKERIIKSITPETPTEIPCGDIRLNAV
T2 sequence (P31652 whole entry): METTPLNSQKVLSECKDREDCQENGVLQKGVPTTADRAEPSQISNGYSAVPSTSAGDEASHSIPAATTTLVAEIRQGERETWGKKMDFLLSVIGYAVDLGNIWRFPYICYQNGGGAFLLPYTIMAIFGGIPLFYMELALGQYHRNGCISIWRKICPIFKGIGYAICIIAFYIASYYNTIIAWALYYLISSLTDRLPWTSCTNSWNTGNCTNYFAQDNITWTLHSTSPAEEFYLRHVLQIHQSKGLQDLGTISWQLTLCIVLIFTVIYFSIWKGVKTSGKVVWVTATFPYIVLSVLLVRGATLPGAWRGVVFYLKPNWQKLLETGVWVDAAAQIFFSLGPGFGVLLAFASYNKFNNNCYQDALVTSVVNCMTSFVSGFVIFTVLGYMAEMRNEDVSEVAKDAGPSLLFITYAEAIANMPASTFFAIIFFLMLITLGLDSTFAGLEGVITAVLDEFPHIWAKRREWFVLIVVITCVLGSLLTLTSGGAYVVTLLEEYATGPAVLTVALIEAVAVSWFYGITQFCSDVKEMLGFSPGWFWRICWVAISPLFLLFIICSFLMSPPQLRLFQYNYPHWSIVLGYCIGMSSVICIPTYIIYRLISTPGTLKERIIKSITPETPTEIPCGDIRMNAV

`Cc1ccc2c3c(ccc2n1)OC[C@H](CNCCC1CCc2[nH]c4ccc(F)cc4c2C1)O3` (mixture of isomers) [Example 40, [2-(6-Fluoro-2,3,4,9-tetrahydro-1H-carbazol-3-yl)ethyl]{[(2S)-8-methyl-2,3-dihydro[1,4]dioxino[2,3-f]quinolin-2-yl]methyl}amine dihydrochloride] gave a Ki [1] of 680 nM, a Ki [2] of 48.4 nM and an EC50 [3] of 4.06 nM. For the same compound, the Emax [3] was 100%, the IC50 [4] was 1.24 ± 0.16 nM and the EC50 [5] was 7.1 nM. The IC50 [5] was 75 nM, the Emax [5] was 46% and the Imax (maximum inhibitory effect) [5] was 34%.

With `Cc1ccc2c3c(ccc2n1)OC[C@H](CNC1CCc2c([nH]c4ccccc24)C1)O3.Cl.Cl` (mixture of isomers) [Example 43, N-{[(2S)-8-methyl-2,3-dihydro[1,4]dioxino[2,3-f]quinolin-2-yl]methyl}-2,3,4,9-tetrahydro-1H-carbazol-2-amine dihydrochloride] the Ki [1] was 432 nM, the Ki [2] was 45.1 nM and the EC50 [3] was 233 nM. The Emax [3] was 61%, the IC50 [4] was 19.3 ± 2.51 nM and the melting point was 117 to 118 °C (dec.). The IC50 [5] was 197 nM and the Imax (maximum inhibitory effect) [5] was 98.5%.

`Cc1ccc2c3c(ccc2n1)OC[C@H](CNCC1CCc2sc4ccc(F)cc4c2C1)O3` (single isomer, unassigned) [31 diastereomer 1] gave a Ki [1] of 1.14 nM, a Ki [2] of 9.9 nM and an Emax ([3]; CHO) of 62%. The IC50 [4] was 337 nM, the IC50 [5] was 155 nM and the “GTPγS, (Imax)^d” value [5] was 95%^d.

For `Cc1ccc2c3c(ccc2n1)OC[C@H](CNCC1CCc2sc4ccc(F)cc4c2C1)O3` (single isomer, unassigned) [31 diastereomer 2], the Ki [1] was 3.67 nM, the Ki [2] was 51.5 nM and the “c-AMP, (Emax)^c” value [3] was 62%^c. The IC50 [4] was 547 nM, the IC50 [5] was 290 nM and the “GTPγS, (Imax)^d” value [5] was 65%^d.

In the case of `Cc1ccc2c3c(ccc2n1)OC[C@H](CNCC1CCc2sc4ccccc4c2C1)O3` (single isomer, unassigned) [32 diastereomers 1], the Ki [1] is reported as 8.07 nM, the Ki [2] is reported as > 1000 nM and the IC50 [3] is reported as 67.6 nM. For the same compound, the IC50 [5] was 494 nM and the Imax (maximum inhibitory effect) [5] was 100%.

With `Cc1ccc2c3c(ccc2n1)OC[C@H](CNCC1CCc2c(sc4cc(F)ccc24)C1)O3` (single isomer, unassigned) [39 diastereomer 1] the Ki [1] was 7.09 nM, the Ki [2] was 210 nM and the Emax ([3]; CHO) was 62%. The IC50 [4] was 2060 nM, the IC50 [5] was 645 nM and the Imax (maximum inhibitory effect) [5] was 100%.

For `Cc1ccc2c3c(ccc2n1)OC[C@H](CNCC1CCc2c(sc4cc(F)ccc24)C1)O3` (single isomer, unassigned) [39 diastereomer 2], the Ki [1] was 2.16 nM, the Ki [2] was 184 nM and the “c-AMP, (Emax)^c” value [3] was 75%^c. For the same compound, the IC50 [4] was 1440 nM, the IC50 [5] was 117 nM and the “GTPγS, (Imax)^d” value [5] was 80%^d.

Compound `Cc1ccc2c3c(ccc2n1)OC[C@H](CNCC[C@@H]1CCc2[nH]c4ccc(F)cc4c2C1)O3` (single isomer, unassigned) [Example 41, dihydrochloride] has a Ki [1] of 242 nM, a Ki [2] of 9.45 nM and an EC50 [3] of 4.13 nM. It also gave an Emax [3] of 94%, an IC50 [4] of 0.58 ± 0.14 nM and an EC50 [5] of 24.8 nM. It also gave an Emax [5] of 94%.

`Cc1ccc2c3c(ccc2n1)OC[C@H](CNCC[C@H]1CCc2[nH]c4ccc(F)cc4c2C1)O3` (single isomer, unassigned) [Example 42, dihydrochloride] gave a Ki [1] of 751 nM, a Ki [2] of 58 nM and an EC50 [3] of 36.4 nM. For the same compound, the Emax [3] was 87%, the IC50 [4] was 2.8 ± 0.12 nM and the EC50 [5] was 63 nM. The IC50 [5] was 351 nM, the Emax [5] was 39% and the Imax (maximum inhibitory effect) [5] was 71%.

With `Cc1ccc2c3c(ccc2n1)OC[C@H](CN[C@H]1CCc2c([nH]c4ccccc24)C1)O3` (single isomer, unassigned) [Example 45, dihydrochloride] the Ki [1] was 365 nM, the Ki [2] was 34.3 nM and the EC50 [3] was 157 nM. It also gave an Emax [3] of 59%, an IC50 [4] of 38.95 ± 0.18 nM and an IC50 [5] of 461 nM.

`CCN(CC1CCc2[nH]c3ccc(F)cc3c2C1)C[C@H]1COc2ccc3nc(C)ccc3c2O1` (stereo partly drawn) [Example 50, N-[(6-Fluoro-2,3,4,9-tetrahydro-1H-carbazol-3-yl)methyl]-N-{[(2S)-8-methyl-2,3-dihydro[1,4]dioxino[2,3-f]quinolin-2-yl]methyl}ethanamine dihydrochloride dihydrate] showed a Ki [1] of 226 nM, a Ki [2] of 26.9 nM and an IC50 [3] of 137 nM. For the same compound, the IC50 [4] was 5.73 ± 0.33 nM, the IC50 [5] was 179 nM and the Imax (maximum inhibitory effect) [5] was 100%.

In the case of `Cc1ccc2c3c(ccc2n1)OC[C@H](CN(CC1CC1)CC1CCc2[nH]c4ccc(F)cc4c2C1)O3` (stereo partly drawn) [Example 52, (Cyclopropylmethyl)[(6-fluoro-2,3,4,9-tetrahydro-1H-carbazol-3-yl)methyl]{[(2S)-8-methyl-2,3-dihydro[1,4]dioxino[2,3-f]quinolin-2-yl]methyl}amine dihydrochloride dihydrate], the Ki [1] is reported as 936 nM, the Ki [2] is reported as 670 nM and the EC50 [3] is reported as 312 nM. It also gave an Emax [3] of 70%, an IC50 [4] of 19.5 ± 0.28 nM and an IC50 [5] of 1580 nM. The Imax (maximum inhibitory effect) [5] was 100%.

`CCCN(C[C@@H]1CCc2[nH]c3ccc(F)cc3c2C1)C[C@H]1COc2ccc3nc(C)ccc3c2O1` [Example 54, N-{[(3R)-6-Fluoro-2,3,4,9-tetrahydro-1H-carbazol-3-yl]methyl}-N-{[(2S)-8-methyl-2,3-dihydro[1,4]dioxino[2,3-f]quinolin-2-yl]methyl}propan-1-amine dihydrochloride dihydrate] gave a Ki [1] of 617 nM, a Ki [2] of 96.5 nM and an EC50 [3] of 177 nM. The Emax [3] was 48%, the IC50 [4] was 16.6 ± 0.85 nM and the IC50 [5] was 581 nM. The Imax (maximum inhibitory effect) [5] was 63%.

`Cc1ccc2c3c(ccc2n1)OC[C@H](CN(CC1CC1)C[C@@H]1CCc2[nH]c4ccc(F)cc4c2C1)O3` [Example 55, (Cyclopropylmethyl){[(3R)-6-fluoro-2,3,4,9-tetrahydro-1H-carbazol-3-yl]methyl}{[(2S)-8-methyl-2,3-dihydro[1,4]dioxino[2,3-f]quinolin-2-yl]methyl}amine dihydrochloride dihydrate] showed a Ki [1] of 850 nM, a Ki [2] of 110 nM and an EC50 [3] of 211 nM. For the same compound, the Emax [3] was 67%, the IC50 [4] was 8.5 ± 0.18 nM and the IC50 [5] was 1130 nM. The Imax (maximum inhibitory effect) [5] was 74%.

For `Cc1ccc2c3c(ccc2n1)OC[C@H](CN(C[C@@H]1CCc2[nH]c4ccc(F)cc4c2C1)C1CCC1)O3` [Example 56, N-{[(3R)-6-Fluoro-2,3,4,9-tetrahydro-1H-carbazol-3-yl]methyl}-N-{[(2S)-8-methyl-2,3-dihydro[1,4]dioxino[2,3-f]quinolin-2-yl]methyl}cyclobutanamine dihydrochloride dihydrate], the Ki [1] was 1730 nM, the Ki [2] was 127 nM and the EC50 [3] was 154 nM. For the same compound, the Emax [3] was 69%, the IC50 [4] was 18.1 ± 0.39 nM and the IC50 [5] was 3100 nM.

With `Cc1ccc2c3c(ccc2n1)OC[C@H](CN(C)C[C@@H]1CCc2c(c4cc(F)ccc4n2C)C1)O3` [Example 69, {[(3R)-6-Fluoro-9-methyl-2,3,4,9-tetrahydro-1H-carbazol-3-yl]methyl}methyl{[(2S)-8-methyl-2,3-dihydro[1,4]dioxino[2,3-f]quinolin-2-yl]methyl}amine monohydrochloride monohydrate] the Ki [1] was 1590 nM, the Ki [2] was 220 nM and the EC50 [3] was 548 nM. The Emax [3] was 63% and the IC50 [4] was 35.8 ± 0.71 nM.
